Counter-ions that a name gives are not always drawn. Active and inactive are the calls of the source.
Columns and labels:
[1] = glucagon-like peptide-1 release potency in STC-1, concentration-response, half-maximal inhibitory concentration in the STC-1 line (AID 1117345); assay type: functional, cell-based
[2] = target: T1, Aryl hydrocarbon receptor (Homo sapiens, UniProt P35869); details: Potency;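 note: confirmatory quantitative high-throughput screen measuring activation of the AhR signaling pathway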
T1 sequence (P35869 whole entry): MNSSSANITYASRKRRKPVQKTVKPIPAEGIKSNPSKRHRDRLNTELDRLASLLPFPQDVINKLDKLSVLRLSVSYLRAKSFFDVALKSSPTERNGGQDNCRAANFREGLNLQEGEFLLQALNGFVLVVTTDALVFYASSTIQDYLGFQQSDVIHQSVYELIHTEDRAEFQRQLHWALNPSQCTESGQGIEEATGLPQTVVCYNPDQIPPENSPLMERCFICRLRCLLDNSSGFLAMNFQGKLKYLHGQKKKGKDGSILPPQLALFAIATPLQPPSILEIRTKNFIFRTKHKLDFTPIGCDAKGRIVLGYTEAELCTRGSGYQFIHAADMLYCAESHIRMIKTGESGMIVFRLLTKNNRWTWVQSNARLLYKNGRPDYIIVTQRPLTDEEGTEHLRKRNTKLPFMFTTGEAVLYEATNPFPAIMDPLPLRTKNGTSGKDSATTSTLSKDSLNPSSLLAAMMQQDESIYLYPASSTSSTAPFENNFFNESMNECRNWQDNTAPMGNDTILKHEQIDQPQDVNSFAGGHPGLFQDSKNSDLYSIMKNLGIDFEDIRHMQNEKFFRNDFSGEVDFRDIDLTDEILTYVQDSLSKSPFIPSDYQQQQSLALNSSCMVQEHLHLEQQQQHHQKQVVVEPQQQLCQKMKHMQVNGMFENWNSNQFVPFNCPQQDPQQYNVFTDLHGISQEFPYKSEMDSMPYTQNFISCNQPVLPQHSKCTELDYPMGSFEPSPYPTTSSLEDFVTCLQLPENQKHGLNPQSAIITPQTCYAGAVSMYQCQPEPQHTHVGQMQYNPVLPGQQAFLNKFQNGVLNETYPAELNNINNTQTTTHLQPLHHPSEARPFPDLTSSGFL

[3] = target: Heat shock protein HSP 90-alpha (Homo sapiens, UniProt P07900); assay type: functional, organism-based
[4] = tested on: Escherichia coli; test: microbe, parasite or virus in culture
[5] = Potency on glucagon-like peptide 1 release, dose-response in NCI-H716 cell line, half maximal inhibitory concentration (AID 1117344); assay type: functional, cell-based
[6] = tested on: Escherichia coli; test: microbe, parasite or virus in culture; remark: listed apart in the source
[7] = target: T2, Oxysterols receptor LXR-beta (Homo sapiens, UniProt P55055); test: LXR agonists, Gal4 luciferase reporter, dose response, counter-screen for ssDAF-12 agonist project, cell-based, luminescence, HEK293, S. stercoralis campaign (AID 720737); assay type: functional; details: read-out: IC50 (the source's name)
T2 sequence (P55055 whole entry): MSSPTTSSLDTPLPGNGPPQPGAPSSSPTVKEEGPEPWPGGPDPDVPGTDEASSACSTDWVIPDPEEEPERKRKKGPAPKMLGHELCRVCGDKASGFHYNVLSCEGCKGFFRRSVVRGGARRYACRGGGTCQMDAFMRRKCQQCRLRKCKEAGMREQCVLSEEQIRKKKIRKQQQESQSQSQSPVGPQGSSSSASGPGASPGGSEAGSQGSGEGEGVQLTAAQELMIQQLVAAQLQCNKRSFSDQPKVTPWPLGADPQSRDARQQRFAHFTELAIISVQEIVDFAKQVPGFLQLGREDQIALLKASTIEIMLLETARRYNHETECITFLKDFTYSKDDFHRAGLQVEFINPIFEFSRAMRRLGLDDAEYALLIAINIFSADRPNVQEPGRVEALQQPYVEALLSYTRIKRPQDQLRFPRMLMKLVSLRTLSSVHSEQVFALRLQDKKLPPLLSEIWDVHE

[8] = Luminescence-based cell-based high throughput dose response assay to identify activators of the DAF-12 from the parasite S. stercoralis (ssDAF-12).; assay type: functional
[9] = target: T3, Bcl-2-related protein A1 (Mus musculus, UniProt Q07440); test: small-molecule antagonists of Bfl-1/BH3 interaction – biochemical, TR-FRET, mouse Bfl-1, confirmation (AID 621);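 note: TR-FRET binding of GST-Bfl-1 to FITC-labelled Bid peptide via terbium antibody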
T3 sequence (Q07440 whole entry): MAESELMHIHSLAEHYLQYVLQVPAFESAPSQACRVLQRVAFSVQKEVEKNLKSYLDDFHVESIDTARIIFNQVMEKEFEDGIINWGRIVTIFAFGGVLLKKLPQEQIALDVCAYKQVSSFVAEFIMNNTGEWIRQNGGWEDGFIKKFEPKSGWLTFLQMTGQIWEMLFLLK

[10] = target: T3, Bcl-2-related protein A1; test: Bfl-1 binding inhibitors, SAR follow-up, biochemical, fluorescence polarization (AID 1070)
[11] = target: Glyceraldehyde-3-phosphate dehydrogenase (Homo sapiens, UniProt P04406)
[12] = target: T4, Carboxy-terminal domain RNA polymerase II polypeptide A small phosphatase 1 (Homo sapiens, UniProt Q9GZU7); test: CTDSP1 inhibitors, concentration-response, biochemical, absorbance readout, ultra-high-throughput screen actives (AID 540297); assay type: functional
T4 sequence (Q9GZU7 whole entry): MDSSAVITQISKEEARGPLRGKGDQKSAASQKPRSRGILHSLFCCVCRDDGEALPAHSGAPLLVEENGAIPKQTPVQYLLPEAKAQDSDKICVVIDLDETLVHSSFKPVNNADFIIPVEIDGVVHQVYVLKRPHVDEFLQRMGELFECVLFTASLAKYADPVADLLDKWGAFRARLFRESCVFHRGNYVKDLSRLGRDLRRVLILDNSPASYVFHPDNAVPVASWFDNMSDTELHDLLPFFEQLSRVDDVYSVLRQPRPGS

[13] = target: T5, Estrogen receptor beta (Homo sapiens, UniProt Q92731); test: blockers of SRC-3 recruitment to ERβ – biochemical, ELISA, streptavidin-HRP readout, orthogonal assay, confirmation (AID 1060)
[14] = target: T5, Estrogen receptor beta
[15] = target: Voltage-gated inwardly rectifying potassium channel KCNH2 (Homo sapiens, UniProt Q12809); test: concentration-dependent hERG rescue from blockers – cell-based, thallium flux, dose response (AID 2121); assay type: ADME
[16] = target: T6, Protein Tat (Human immunodeficiency virus type 1 group M subtype B (isolate HXB2)(HIV-1), UniProt P04608); assay type: functional;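 note: tat binding to TAR RNA read out by fluorescence polarization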
T6 sequence (P04608 whole entry): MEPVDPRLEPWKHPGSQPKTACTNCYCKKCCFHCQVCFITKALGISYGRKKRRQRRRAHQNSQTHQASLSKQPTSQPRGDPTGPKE

[17] = NIH3T3 cell viability loss – ATP luminescence, mouse fibroblasts, counter-screen, dose response (AID 2010); assay type: functional, cell-based;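 note: cells exposed to compound for about 90 hours before reading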
[18] = target: T7, DNA repair protein RAD52 homolog (Homo sapiens, UniProt P43351); assay type: functional, biochemical
T7 sequence (P43351 whole entry): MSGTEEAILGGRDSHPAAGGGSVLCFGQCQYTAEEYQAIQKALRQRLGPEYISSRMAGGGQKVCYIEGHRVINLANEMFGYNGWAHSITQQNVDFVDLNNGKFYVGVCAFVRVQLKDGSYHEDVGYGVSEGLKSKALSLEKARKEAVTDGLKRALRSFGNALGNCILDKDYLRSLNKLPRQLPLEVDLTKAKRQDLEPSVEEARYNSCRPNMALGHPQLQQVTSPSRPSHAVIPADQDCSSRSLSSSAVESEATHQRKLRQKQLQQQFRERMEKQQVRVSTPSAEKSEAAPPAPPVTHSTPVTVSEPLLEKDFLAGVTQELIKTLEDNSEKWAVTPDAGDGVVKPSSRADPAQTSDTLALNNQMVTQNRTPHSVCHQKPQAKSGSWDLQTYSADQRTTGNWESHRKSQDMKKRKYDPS

[19] = target: T8, Glutathione-S-transferase (Schistosoma japonicum, UniProt Q26513); test: GST-antibody interaction or FRET quenching – biochemical, TR-FRET, artefact control for Vif-APOBEC3G degradation inhibitor project, dose response (AID 1117362); assay type: functional
T8 sequence (Q26513 whole entry): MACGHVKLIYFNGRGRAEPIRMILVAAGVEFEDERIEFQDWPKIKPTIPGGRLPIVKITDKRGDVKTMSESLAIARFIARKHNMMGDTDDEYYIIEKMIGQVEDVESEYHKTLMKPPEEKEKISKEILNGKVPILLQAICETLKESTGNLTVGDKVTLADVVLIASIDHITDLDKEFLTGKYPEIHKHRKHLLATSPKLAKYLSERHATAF

[20] = Trypanosoma cruzi growth suppression in host cells – NIH3T3 host cells, beta-gal luminescence, confirmation (AID 2044); assay type: functional, cell-based;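 note: intracellular parasites grown in NIH/3T3 mouse fibroblasts as host cells; luminescent beta-galactosidase reporter signal from transgenic T. cruzi replicating inside host cells; inhibitors lower the luminescence signal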
[21] = target: FAD-linked sulfhydryl oxidase ALR (Homo sapiens, UniProt P55789); test: ALR-catalysed DTT oxidation blockers – biochemical, H2O2 detection, luminescence, cherry-pick, dose response (AID 493248)
[22] = viability loss in THP-1 monocytes – THP-1 cells, cytotoxicity control for Vif-APOBEC3G degradation inhibitor project, dose response (AID 1117359); assay type: functional; details: THP-1
[23] = microbe, parasite or virus in culture; assay type: functional; details: Mycobacterium tuberculosis
[24] = reduction of Shn3 3'UTR-driven luciferase in osteoblasts – cell-based, Clone20 osteoblasts, firefly luciferase, cherry-picked, dose response (AID 624132); assay type: functional;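 note: firefly luciferase luminescence from reporter carrying the Shn3 3'UTR in osteoblasts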
[25] = tested on: INS1; test: INS-1E survival protection against cytokine death – cell-based, luminescence, retest, dose response (AID 449756); assay type: functional; details: Rattus norvegicus;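 note: cell death triggered by IL-1 beta plus TNF-alpha plus IFN-gamma mixture; protective hits raise ATP signal compared with cytokine alone wells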
[26] = luciferase reporter signal suppression in cells – H4 neuroglioma cells, luminescence, dose response (AID 1990); assay type: functional, cell-based
[27] = viability of PTEN-deleted HCT116 cells – cell-based, HCT116 PTEN knockout, dose response (AID 1047); assay type: functional;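 note: HCT116 colon tumor cells with PTEN knocked out; cells exposed to compound for 60 hours before readout; potency for loss of cell viability measured by luminescence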
[28] = non-specific 3'UTR reporter inhibition in Clone20-Shn3RL – cell-based, Renilla luciferase, cherry-picked, counter-screen for Shn3 inhibitor project, dose response (AID 624133); assay type: functional
[29] = target: T9, Ubiquitin-conjugating enzyme E2 N (Homo sapiens, UniProt P61088); assay type: functional;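 note: Dose-response confirmation in a TR-FRET assay detecting UBC13-driven polyubiquitin chain formation, inhibition measured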
T9 sequence (P61088 whole entry): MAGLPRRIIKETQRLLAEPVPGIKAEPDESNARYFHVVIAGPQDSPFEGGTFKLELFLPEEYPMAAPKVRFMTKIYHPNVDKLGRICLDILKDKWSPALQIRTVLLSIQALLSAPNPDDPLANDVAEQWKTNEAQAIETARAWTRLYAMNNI

[30] = Luminescence Cell-Based Dose Response HTS to Identify Inhibitors of 5'UTR Stem-Loop Driven Prion Protein mRNA Translation in H4 Neuroglioblastoma Cells. [Related pubchem assays: 1827 (Project Summary), 1813 (Primary HTS)]; assay type: functional
[31] = loss of viability in HepG2 cells – cell-based, CellTiter-Glo, cherry-picked, cytotoxicity control for Shn3 inhibitor project, dose response (AID 624134); assay type: functional
[32] = alpha-synuclein stem-loop luciferase translation blockers – H4 neuroglioma cells, luminescence, confirmation (AID 1988); assay type: functional, cell-based
[33] = viability of HCT116 lacking mutant beta-catenin – cell-based, human colon tumor, dose response (AID 1045); assay type: functional;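 note: HCT116 colon tumor cells with beta catenin knocked out; cells exposed to compound for 60 hours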

Chain of Voltage-gated inwardly rectifying potassium channel KCNH2 (Q12809 whole entry): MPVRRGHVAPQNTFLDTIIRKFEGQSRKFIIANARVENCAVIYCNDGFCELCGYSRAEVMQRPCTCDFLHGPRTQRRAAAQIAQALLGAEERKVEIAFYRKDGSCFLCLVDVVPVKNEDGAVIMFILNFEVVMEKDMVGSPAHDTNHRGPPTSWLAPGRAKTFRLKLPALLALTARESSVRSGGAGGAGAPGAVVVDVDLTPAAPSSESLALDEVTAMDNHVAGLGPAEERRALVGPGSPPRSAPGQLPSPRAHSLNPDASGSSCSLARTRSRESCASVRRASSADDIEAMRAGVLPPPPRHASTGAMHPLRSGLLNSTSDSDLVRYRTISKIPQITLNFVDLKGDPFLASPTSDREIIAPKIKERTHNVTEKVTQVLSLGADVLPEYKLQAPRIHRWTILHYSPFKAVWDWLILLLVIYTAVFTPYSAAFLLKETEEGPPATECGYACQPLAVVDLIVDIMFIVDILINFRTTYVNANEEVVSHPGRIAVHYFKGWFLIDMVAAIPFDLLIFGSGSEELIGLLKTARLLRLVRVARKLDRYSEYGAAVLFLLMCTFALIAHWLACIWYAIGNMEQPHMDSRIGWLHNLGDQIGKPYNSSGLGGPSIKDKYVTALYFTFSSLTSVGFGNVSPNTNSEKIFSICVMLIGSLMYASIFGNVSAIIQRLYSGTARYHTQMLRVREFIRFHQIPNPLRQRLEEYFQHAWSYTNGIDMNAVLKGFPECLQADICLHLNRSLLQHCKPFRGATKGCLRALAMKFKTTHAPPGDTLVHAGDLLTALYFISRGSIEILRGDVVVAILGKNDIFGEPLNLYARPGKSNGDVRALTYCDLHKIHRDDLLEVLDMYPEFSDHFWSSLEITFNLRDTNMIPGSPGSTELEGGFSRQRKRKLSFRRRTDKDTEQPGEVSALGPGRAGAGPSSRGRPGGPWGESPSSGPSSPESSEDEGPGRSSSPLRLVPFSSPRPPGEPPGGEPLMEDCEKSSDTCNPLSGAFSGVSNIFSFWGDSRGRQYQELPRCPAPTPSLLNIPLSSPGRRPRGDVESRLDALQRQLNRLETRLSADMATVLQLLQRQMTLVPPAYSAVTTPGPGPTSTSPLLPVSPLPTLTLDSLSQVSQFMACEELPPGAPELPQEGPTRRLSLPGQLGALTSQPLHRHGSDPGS
T5 sequence (Q92731 whole entry): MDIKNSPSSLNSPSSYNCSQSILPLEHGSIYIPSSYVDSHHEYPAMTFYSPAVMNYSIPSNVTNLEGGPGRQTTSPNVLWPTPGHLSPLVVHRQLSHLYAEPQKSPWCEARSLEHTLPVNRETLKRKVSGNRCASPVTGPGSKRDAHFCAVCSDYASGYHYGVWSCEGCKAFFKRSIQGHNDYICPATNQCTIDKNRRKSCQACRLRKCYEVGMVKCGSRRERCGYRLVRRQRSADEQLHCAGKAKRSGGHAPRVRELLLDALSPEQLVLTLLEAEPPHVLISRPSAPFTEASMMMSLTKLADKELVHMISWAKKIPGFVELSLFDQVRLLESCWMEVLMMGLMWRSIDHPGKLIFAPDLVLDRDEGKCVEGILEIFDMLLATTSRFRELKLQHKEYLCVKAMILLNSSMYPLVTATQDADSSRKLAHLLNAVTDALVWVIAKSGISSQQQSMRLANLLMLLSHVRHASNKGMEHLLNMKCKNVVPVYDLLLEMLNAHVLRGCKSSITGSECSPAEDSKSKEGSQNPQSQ
Chain of Glyceraldehyde-3-phosphate dehydrogenase (P04406 whole entry, the tested form may be a part): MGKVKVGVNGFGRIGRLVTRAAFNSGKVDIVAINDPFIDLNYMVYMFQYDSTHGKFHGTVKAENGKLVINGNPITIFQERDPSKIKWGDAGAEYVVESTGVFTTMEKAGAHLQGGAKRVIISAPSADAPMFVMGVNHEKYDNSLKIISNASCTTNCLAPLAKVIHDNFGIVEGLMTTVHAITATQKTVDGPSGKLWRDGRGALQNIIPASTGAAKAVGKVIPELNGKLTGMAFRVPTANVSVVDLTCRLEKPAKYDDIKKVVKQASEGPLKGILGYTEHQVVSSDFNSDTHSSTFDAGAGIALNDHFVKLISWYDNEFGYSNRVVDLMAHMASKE
Chain of FAD-linked sulfhydryl oxidase ALR (P55789 whole entry): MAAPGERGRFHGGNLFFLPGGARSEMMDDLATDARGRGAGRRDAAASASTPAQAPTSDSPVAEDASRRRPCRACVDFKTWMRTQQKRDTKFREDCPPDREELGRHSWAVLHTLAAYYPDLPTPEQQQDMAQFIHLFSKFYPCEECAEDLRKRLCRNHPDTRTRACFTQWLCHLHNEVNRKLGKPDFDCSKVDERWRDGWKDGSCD

Oc1cc(Cl)ccc1Oc1ccc(Cl)cc1Cl [TRICLOSAN]
IC50 [1]: 2.55 µM (active)
AC50 [2]: 70.8 µM (inconclusive)
AC50 [3]: 7.85 µM (active)
AC50 [4]: 1.06 µM (active)
IC50 [5]: 21.3 µM (inactive)
AC50 [6]: 0.329 µM (active)

Cc1nn(Cc2ccccc2)c(Cl)c1/C=N/NC(=O)c1cccnc1
EC50 [7]: > 67.5 µM (inactive)
IC50 [8]: > 67.5 µM (inactive)

O=C1C(Cl)=C(N2CCN(CCO)CC2)C(=O)N1c1ccc(Cl)c(Cl)c1
IC50 [9]: 0.59 µM (active)
IC50 [10]: 0.556 µM (active)
IC50 [11]: > 100 µM (not active)

O=C(Cc1cccs1)Nc1ccc(S(=O)(=O)N2CCCCC2)cc1
IC50 [12]: 4.95 µM (active)
IC50 [13]: < 77 µM (not active)
IC50 [14]: 2.71 µM (active)

CCOC(=O)Cc1csc(NC(=S)NC(=O)C(C)(C)C)n1
EC50 [15]: 2.51 µM (active)

CC1(C)Cc2nc3sc4c(SCC(=O)NCc5ccco5)ncnc4c3cc2CO1
IC50 [16]: > 100 µM (active)

CCSc1nnc(Cc2cc(=O)[nH]c(=O)[nH]2)n1-c1cc(C)ccc1C
IC50 [14]: > 50 µM (not active)

C=CCn1c(COc2ccc(OC)cc2)nnc1SCn1nnc2ccccc2c1=O
EC50 [7]: > 67.6 µM (inactive)
IC50 [8]: > 67.6 µM (inactive)

O=C(COc1ccc(Cl)cc1Cl)NC(=S)N1CCCc2ccccc21
EC50 [15]: 4.06 µM (active)

CC1(C)CC(Nc2ccc(Nc3ccccc3)cc2)CC(C)(C)N1
EC50 [17]: > 60 µM (not active)
AC50 [18]: 13.9 µM (active)
IC50 [19]: 64.5 µM (active)
EC50 [20]: 4.14 µM (active)
AC50 [21]: 0.27 µM (active)
CC50 [22]: > 40 µM (active)

Cc1ccccc1N1CCN(C2=C(Cl)C(=O)N(c3ccc(Cl)c(Cl)c3)C2=O)CC1
IC50 [9]: > 100 µM (not active)
IC50 [10]: > 100 µM (not active)
IC50 [11]: > 100 µM (not active)

C[C@@H](NCCCc1cccc(C(F)(F)F)c1)c1cccc2ccccc12 [CINACALCET HYDROCHLORIDE]
IC50 [1]: > 40 µM (inactive)
IC50 [5]: 17.2 µM (inactive)

CC1CN(C(=S)NC(=O)c2ccc(Cl)cc2)CC(C)O1 (stereo not given)
EC50 [15]: 5.66 µM (active)

CC(C)(C)c1ccc(C(O)CCCN2CCC(C(O)(c3ccccc3)c3ccccc3)CC2)cc1 (stereo not given) [TERFENADINE]
CC50 [23]: 9.24 µM (active)
IC50 [1]: > 40 µM (inactive)
AC50 [24]: 16.7 µM (active)
AC50 [25]: 8.13 µM (active)
EC50 [26]: > 120 µM (not active)
EC50 [27]: 4.43 µM (active)
AC50 [28]: 12.9 µM (active)
IC50 [5]: 20.5 µM (inactive)
IC50 [29]: > 20 µM (inactive)
EC50 [30]: 6.46 µM (active)
AC50 [31]: 11.4 µM (active)
EC50 [32]: 4.26 µM (active)
EC50 [33]: 4.55 µM (active)
